# According to ChEMBL document CHEMBL6134920, “Novel Heterocyclic Pyrimidine Derivatives as GSK3α Inhibitors” (ACS Med Chem Lett, 2025):
# pIC50: −log10 of the molar value.
# Assay: Inhibition of Nanoluc-GSK2alpha (unknown origin) expressed in HEK293 cells measured after overnight incubation by NanoBRET- cellular assay
# Details: Homo sapiens
row,pIC50,Structure (SMILES)
1,8.62,COCC(N)c1cncc(NC(=O)c2c(N)ncn(-c3c(Cl)cc(OC4CC4)cc3Cl)c2=O)c1 (stereo unspecified)
2,8.32,CCNCc1cncc(NC(=O)c2c(N)ncn(-c3c(Cl)cc(OCC)cc3Cl)c2=O)c1
3,8.55,COCC(N)c1cncc(NC(=O)c2c(N)ncn(-c3c(Cl)cc(C(F)F)cc3Cl)c2=O)c1 (stereo unspecified)
4,8.62,COCc1cc(Cl)c(-n2cnc(N)c(C(=O)Nc3cncc(C(N)COC)c3)c2=O)c(Cl)c1 (stereo unspecified)
5,8.72,CNC(COC)c1cncc(NC(=O)c2c(N)ncn(-c3c(Cl)cc(COC)cc3Cl)c2=O)c1 (stereo unspecified)
6,8.70,Nc1ncn(-c2c(Cl)cc(C(F)CF)cc2Cl)c(=O)c1C(=O)Nc1cncc([C@H]2CCCCN2)c1 (stereo partly specified)
